Where two headings read alike, the source gives them in different places.
Columns and labels:
[1] = system: P. falciparum (3D7 strain); experiment: In vitro antiplasmodial activity, P. falciparum blood-stage parasites, SYBR Green I; format: cell-based, Plasmodium falciparum
Experimental: The P. falciparum strains were cultivated in human blood cells (hRBC) O^+, while P. knowlesi was cultivated in rhesus red blood cells (rRBC) as described. P. falciparum complete RPMI (consisting of RPMI-1640, supplemented with 0.2% NaHCO3, 25 mM HEPES (pH 7.4), 11 mM D-glucose, 10 mg/L hypoxanthine, 25 mg/L gentamicin, and 0.5% (m/v) AlbuMAX II). The parasitemias of these cultures were maintained below 10% with 2.5% hematocrit. P. knowlesi complete RPMI (consisting of RPMI-1640 supplemented with 25 mM HEPES, […] hypoxanthine, 0.26% NaHCO3, 10 mg/L gentamicin, and 1% Albumax II). This culture was maintained with RBCs up to 5% hematocrit. The culture medium was changed daily, and all cultures were maintained under a 90% N2/5% CO2/5% O2 gas mixture at 37 °C. All compounds were purchased from Sigma-Aldrich (Cotia, Brazil).
The antiplasmodial activity of brussonol and derivatives was evaluated against P. falciparum blood parasites 3D7(chloroquine-sensitive). The parasites were synchronized through sterile 5% (m/v) D-sorbitol treatment over 10 min at 37 °C for the enrichment of ring stages. Centrifugation 600× g over 5 min was used to pellet the cultures. The parasitemia was determined by microscope analysis of thin blood smears stained with Giemsa 10% (v/v) after fixation with methanol. The initial parasitemia was calculated for 1000 red blood cells (RBCs), and cultures were diluted to 0.5% parasitemia and 2% hematocrit by the addition of the appropriate volumes of blood and medium. A total of 180 µL aliquots of parasites were distributed into 96-well plates followed by the addition of 20 µL of previously prepared aliquots of ten-fold concentrated compounds, the range of concentrations tested was 10–1.53 µM. Negative and positive control wells, which correspond to non-parasitized erythrocytes and parasite cultures in the absence of compounds, were set in parallel. The DMSO concentration was maintained below 0.05% (v/v) for all compounds except for brussonol, which was 0.5%. The plates were incubated for 72 h at 37 °C in a humidified incubator with a gas mixture of 90% N2, 5% O2, and 5% CO2. Each test was performed in duplicates, and the results were compared with the control cultures. Once completed incubation, the culture medium was removed, and the cells were resuspended in 100 µL PBS (116 mM NaCl, 10 mM NaH2PO4, 3 mM KH2PO4) and lysed with 100 µL lysis buffer (20 mM Tris base, 5 mM EDTA, 0.0008% (v/v) Triton X-100, 0.008% (m/v) saponin, pH 8.0) containing 0.002% (v/v) SYBR Green I. Plates were incubated for 30 min at room temperature, and a SpectraMAX Gemini EM plate reader (Molecular Devices Corp., Sunnyvale, CA) was used to determine the fluorescence corresponding to parasitic density (excitation at 485 nm, emission at 535 nm). The half-maximal inhibitory concentration (IC50^Pf) was determined by non-linear regression analysis of the resulting concentration–response curve using the software GraphPad Prism version 8.0.1 for Windows, GraphPad Software, San Diego, California USA, www.graphpad.com, accessed on 3 March 2022”.

P. falciparum K1 strain = experiment: Resistance assessment, K1 strain; format: cell-based; settings: Plasmodium falciparum
[2] = system: P. falciparum TM90C6B strain; experiment: Resistance assessment, TM90C6B strain; format: cell-based; settings: Plasmodium falciparum
P. falciparum 3D7 strain = experiment: Chemical rescue assay with isopentenyl pyrophosphate (IPP); format: cell-based, Plasmodium falciparum; settings: for IC50: Plasmodium falciparum, 3D7 strain, 72 h
Source text: To evaluate whether brussonol interfered with the biosynthesis of […] in malaria parasites, we conducted a chemical rescue assay. The assay identifies compounds that interfere with the metabolism of isoprenoids by “rescuing” their growth inhibition through the supplementation of isopentenyl pyrophosphate (IPP), a key precursor of isoprenoid biosynthesis. […] Thus, the chemical rescue assay compares the IC50 values of the tested compound in the presence and absence of IPP. We used fosmidomycin (FOS) as a positive control for growth inhibition rescuing upon supplementation of IPP (Figure 7b). In this assay, compounds that interfere in the metabolism of isoprenoids show a significant increment in the IC50 value in the presence of IPP (Figure 7b).
The chemical rescue assay was carried out as described by Yeh and DeRisi (2011). This assay consists in verifying the IC50 value of the tested compounds with and without the isopentenyl pyrophosphate (IPP), purchased from Isoprenoids, LC (Florida, USA). Briefly, 3D7 strain ring stages were cultured in 96-well plates, with 0.5% parasitemia and 2% hematocrit. Non-parasitized erythrocytes and parasitized erythrocytes without drugs were used as growth controls, and fosmidomycin (FOS) was used as a positive control for chemical rescue. Serial dilutions of brussonol and FOS were prepared in duplicates. In the same 96-well plate, brussonol and FOS had their antiplasmodial activity evaluated with and without supplementation of 200 µM IPP. Plates were incubated for 72 h and analyzed by the SYBR Green I assay.

hemozoin formation = experiment: Hemozoin formation inhibition assay; format: biochemical; settings: hemin 25 µM, pH 4.8, 4 h, one experiment in triplicate
Experimental: 2. Hemozoin Formation Inhibition Assay
The hemozoin formation inhibition assay was performed as described previously.12 Briefly, serial 1:3 dilutions, in a 96‐well plate, wit h brussonol were made in a final volume of 20 μL in a concentration 10 times higher than the final concentration of the assay. Secondly, 90 μ L of freshly prepared hemin (at a final concentration of 25 μM) solution in 1M NaOAc/HOAc buffer pH 4.8 were added followed by addition of 90 μ L of 5.4 mg/L Tween 20 solution freshly prepared. The plates were let to stand for 4 hours at 37 °C followed by resuspension with multichannel pippete and read at 415 and 630 nm using a SpectraMAX Plus 384 plate reader (Molecular Devices Corp., Sunnyvale, CA).
Due to the absence of enough compound, this experiment wa s performed only once, but with internal triplicate. Chloroquine (CQ) and pyrimethamine (PYR) were used as positive and negative control of inhibition, respectively.
Inhibition (%) = 100 – 100 x [(Aco ntro l – Asample) / (Acontrol - Amin)] Acontrol is the difference of the absorbance at 415 and 630 nm of the negative control (Hemin +, Tween 20 ‐, Compound ‐); Amin is the difference of the absorbance at 415 and 630 nm of the positive control (Hemin +, Tween 20 +, Compound ‐ ); Asample is the difference of the absorbance at 415 and 630 nm of the sample. The hemozoin formation inhibition assay was performed to evaluate if brussonol act inhibiting hemozoin formation in P. falciparum. CQ, which is a well‐known inhibitor of hemozoin […]
Figure S1. Hemozoin formation inhibition assay. Different concentrations of CQ (black triangles), PYR (red squares) and brussonol (blue circles) were incubated with heme in triplicates. Th e absorbance was recorded at 415/630 nm to determine the hemozoin formation inhibition. […]

## CC(C)c1cc2c(c(O)c1O)C[C@@]13CCCC(C)(C)[C@@H]1C[C@@H]2O3 [Compound 1, brussonol]
[1]; 3D7 strain, 72 h, SYBR Green I, read-out: IC50^Pf
  IC50: 16 ± 2 µM
[1]; Plasmodium falciparum, 3D7, 3D7 strain, Table 2 strain panel, read-out: IC50
  IC50: 13 ± 2 µM
[1]; Plasmodium falciparum, 3D7, 72 h, 3D7 strain, 72 h, SYBR Green I, read-out: IC50^Pf
  IC50: ~20 µM
P. falciparum K1 strain
  IC50: 6.6 ± 0.1 µM
[2]
  IC50: 7 ± 2 µM
P. falciparum 3D7 strain; 200 µM IPP
  reversal of growth inhibition by IPP supplementation: did not reverse the growth inhibition
P. falciparum 3D7 strain; with 200 µM IPP, read-out: IC50 in the presence of IPP
  IC50: 13.9 ± 0.2 µM
P. falciparum 3D7 strain; without IPP, read-out: IC50 in the absence of IPP
  IC50: 18 ± 1 µM
Hemozoin formation; listed as Brussonol
  hemozoin formation inhibition (in words): do not act inhibiting hemozoin formation
Hemozoin formation; listed as brussonol
  hemozoin formation inhibition (in words): did not interfere with hemozoin polymerization

Source: paper PMC9321043, “Synthesis, Structure–Activity Relationships, and Parasitological Profiling of Brussonol Derivatives as New Plasmodium falciparum Inhibitors” (Pharmaceuticals, 2022)
